Columns and labels:
A431 cells = assay type: cell-based; settings: A431, Table A6; read-out: IC50 nM (Toxicity)
[1] = Critical micellar concentration (ANS fluorescence); assay type: physicochemical; settings: comparison in words
Method: The critical micellar concentration (CMC) of saponins derived from Saponaria officinalis (SO) (Table A7) and derived from Quillaja saponaria (QS) (Table A8, and Table A9) was determined by the method of DeVendittis et al. (A fluorimetric method for the estimation of the critical micelle concentration of surfactants, Analytical Biochemistry, Volume 115, Issue 2, August 1981, Pages 278-286) as follows:
The emission spectrum of 8-Anilinonaphthalene-1-sulfonic acid (ANS) in either purified water (MQ) or PBS (Dulbecco's PBS+/+) was determined at dry weight concentrations of saponins ranging from 1 to 1400 μM to cover the range below and above the CMC. Above the CMC, the fluorescence yield of ANS increases and the wavelength of maximum emission decreases due to portioning of the fluorescent dye into micelles. Fluorescence yields were recorded on a Fluoroskan Ascent FL (Thermo Scientific) at an excitation wavelength of 355 nm, and an emission wavelength of 460 nm. 6 μg at a concentration of 75.86 μM of ANS were used per sample and measurement.

## CC(=O)OC1C(C)OC(OC2C(C)OC(OC(=O)[C@]34CCC(C)(C)CC3C3=CCC5[C@@]6(C)CC[C@H](OC7OC(C(=O)NCCN8C(=O)C=CC8=O)C(O)C(OC8OCC(O)C(O)C8O)C7OC7OC(CO)C(O)C(O)C7O)[C@@](C)(C=O)C6CC[C@@]5(C)[C@]3(C)C[C@H]4O)C(OC3OC(C)C(OC4OCC(O)C(OC5OC(CO)C(O)C(O)C5O)C4O)C(O)C3O)C2O)C(O)C1OC1OCC(O)C(O)C1O (some centres unmarked) [SO1861-Glu-AEM]
A431 cells
  IC50: > 100000 nM
[1]
  CMC compared with native (underivatised) saponin: lower CMC values

From patent US20230357310A1, “Saponin derivatives with improved therapeutic window” (priority 2019, published 2023)
